Reference: paper PMC7673538 (PLoS Biology, 2020)
Several values for one entry are separate records, joined by “and”; a condition that tells them apart may be missing. Identical values can stand only once. Like-named read-outs stand apart in the source and are kept apart here.

Tests used:
EV-A71 = experiment: microbe, parasite or virus in culture; format: cell-based, enterovirus A71; details: Enterovirus A
CV-A24 (strain Joseph) = format: cell-based, coxsackievirus A24
[1] = test system: representative EVs and RVs; format: cell-based
HRV-B14 = format: cell-based, human rhinovirus
CV-B3 (strain Nancy) = format: cell-based, coxsackievirus B3
EV-D68 (strain Fermon) = format: cell-based, enterovirus D68
human NET = target: T1, human NET (Homo sapiens, UniProt P23975); format: cell-based; details: for NET, Mean (Figure 8B): Control = 100; for NET, Mean as % (Figure 8B): Control = 100%
T1 construct: expressed in transfected cells; host or cells: HEK293 (gift of Dr. Hoener, F. Hoffmann-La Roche)
T1 sequence (P23975 whole entry): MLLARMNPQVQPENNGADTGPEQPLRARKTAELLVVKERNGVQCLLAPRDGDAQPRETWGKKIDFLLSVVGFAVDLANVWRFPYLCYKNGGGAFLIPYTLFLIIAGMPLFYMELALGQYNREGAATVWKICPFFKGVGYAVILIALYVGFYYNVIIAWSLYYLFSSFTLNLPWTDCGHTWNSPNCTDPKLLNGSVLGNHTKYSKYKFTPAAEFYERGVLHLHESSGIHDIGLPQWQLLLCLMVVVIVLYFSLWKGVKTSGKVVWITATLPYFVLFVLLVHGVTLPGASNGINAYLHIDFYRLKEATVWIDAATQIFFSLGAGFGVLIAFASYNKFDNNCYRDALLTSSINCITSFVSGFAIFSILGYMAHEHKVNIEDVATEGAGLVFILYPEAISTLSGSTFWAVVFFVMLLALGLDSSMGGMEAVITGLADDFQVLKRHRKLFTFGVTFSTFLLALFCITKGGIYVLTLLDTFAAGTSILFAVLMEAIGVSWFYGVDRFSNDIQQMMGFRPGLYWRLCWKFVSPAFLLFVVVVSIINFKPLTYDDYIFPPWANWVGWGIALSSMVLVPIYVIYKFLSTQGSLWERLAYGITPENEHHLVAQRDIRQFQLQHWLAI

in vitro = details: monkey
EV-D68 = experiment: microbe, parasite or virus in culture; format: cell-based, enterovirus D68; details: for EC50: Enterovirus D
human SERT = target: T2, human SERT (Homo sapiens, UniProt P31645); format: cell-based; details: for SERT, Mean (Figure 8B): Control = 100.00; for SERT, Mean as % (Figure 8B): Control = 100%
T2 construct: expressed in transfected cells; host or cells: HEK293 (gift of Dr. Hoener, F. Hoffmann-La Roche)
T2 sequence (P31645 whole entry): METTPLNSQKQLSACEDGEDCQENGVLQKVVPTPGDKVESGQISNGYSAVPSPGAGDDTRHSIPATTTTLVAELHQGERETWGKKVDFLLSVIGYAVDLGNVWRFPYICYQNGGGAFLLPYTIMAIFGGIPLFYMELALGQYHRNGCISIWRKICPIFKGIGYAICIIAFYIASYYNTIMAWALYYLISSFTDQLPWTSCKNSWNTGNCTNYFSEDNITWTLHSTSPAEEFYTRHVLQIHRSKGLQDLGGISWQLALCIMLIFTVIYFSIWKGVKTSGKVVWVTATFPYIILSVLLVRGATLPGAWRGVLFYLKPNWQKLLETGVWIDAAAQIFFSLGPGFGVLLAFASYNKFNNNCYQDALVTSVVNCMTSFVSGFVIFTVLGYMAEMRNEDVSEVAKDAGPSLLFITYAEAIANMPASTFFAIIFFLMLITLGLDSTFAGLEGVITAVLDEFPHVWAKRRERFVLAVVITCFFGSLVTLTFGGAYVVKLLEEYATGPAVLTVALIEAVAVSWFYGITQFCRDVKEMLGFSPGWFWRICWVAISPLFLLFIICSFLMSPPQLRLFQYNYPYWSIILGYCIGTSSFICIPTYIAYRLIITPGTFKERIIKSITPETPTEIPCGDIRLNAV

HRV-A2 = format: cell-based, human rhinovirus
PV-1 = experiment: microbe, parasite or virus in culture; format: cell-based, poliovirus 1; details: for EC50: Enterovirus C

COc1ccc(N(Cc2ccc(F)cc2)C(=O)c2cc[nH]c2)cc1 [Compound 12a, N-(4-Fluorobenzyl)-N-(4-methoxyphenyl)-1H-pyrrole-3-carboxamide]
EC50 (EV-A71; EVA71, HeLa R19, read-out: EC50 EV-A71): 4.03 ± 0.73 µM | EC50 (EV-A71; EVA71, HeLa R19, read-out: EC50 EV-A71 strain BrCr): 4.48 ± 0.42 µM | EC50 (EV-A71; EVA71, HeLa R19, read-out: EC50 EV-A71 strain TW/2728/04): 8.33 ± 0.65 µM | EC50 (EV-A71; EVA71, HeLa R19, read-out: EC50 EV-A71 strain TW/2945/98): 9.17 ± 0.41 µM | EC50 (EV-A71; EVA71, HeLa R19, read-out: EC50 EV-A71 strain TW/70811/08): 8.18 ± 0.61 µM | EC50 (EV-A71; EVA71, HeLa R19, read-out: EC50 EV-A71 strain TW/72232/04): 6.41 ± 2.09 µM | EC50 (EV-A71; EVA71, HeLa R19, read-out: EC50 EV-A71 strain TW/96016/08): 9.47 ± 0.04 µM | cytotoxicity (in words) (HeLa R19 cells): no cytotoxicity | virus titer, TCID50/ml (Figure 2A) (CV-A24 (strain Joseph); compound concentration 0.1 µM): 469824 TCID50/ml and 562341 TCID50/ml and 300000 TCID50/ml | virus titer, TCID50/ml (Figure 2A) (CV-A24 (strain Joseph); compound concentration 1 µM): 169824 TCID50/ml and 316228 TCID50/ml | virus titer, TCID50/ml (Figure 2A) (CV-A24 (strain Joseph); compound concentration 100 µM): 316.228 TCID50/ml | inhibition of contemporary/clinical isolates of EV-A71, CV-A24v and EV-D68 (in words) [1]: inhibited all clinical isolates of EV-A71, CV-A24v, and EV-D68 tested | spectrum of antiviral activity (in words) [1]: inhibited all representative EVs and RVs | virus titer, TCID50/ml (Figure 2A) (HRV-B14; compound concentration 0.3 µM): 10000000 TCID50/ml and 16982440 TCID50/ml | virus titer, TCID50/ml (Figure 2A) (HRV-B14; compound concentration 3 µM): 10000000 TCID50/ml and 16982440 TCID50/ml | virus titer, TCID50/ml (Figure 2A) (CV-B3 (strain Nancy); compound concentration 0.001 µM): 316227800 TCID50/ml and 467735100 TCID50/ml | virus titer, TCID50/ml (Figure 2A) (CV-B3 (strain Nancy); compound concentration 0.01 µM): 467735100 TCID50/ml and 316227800 TCID50/ml | virus titer, TCID50/ml (Figure 2A) (EV-D68 (strain Fermon); compound concentration 0.01 µM): 6000000 TCID50/ml and 4677352 TCID50/ml | virus titer, TCID50/ml (Figure 2A) (EV-D68 (strain Fermon); compound concentration 0.1 µM): 7000000 TCID50/ml and 4677352 TCID50/ml and 8000000 TCID50/ml | virus titer, TCID50/ml (Figure 2A) (EV-D68 (strain Fermon); compound concentration 3 µM): 21379.6 TCID50/ml and 35481.3 TCID50/ml and 31622.8 TCID50/ml | virus titer, TCID50/ml (Figure 2A) (EV-D68 (strain Fermon); compound concentration 100 µM): 31622.8 TCID50/ml and 21379.6 TCID50/ml and 35481.3 TCID50/ml | NET, Mean (Figure 8B) (human NET; 1µM): 121.035 | NET, Mean as % (Figure 8B) (human NET; 1µM): 121% | NET, Mean (Figure 8B) (human NET; 100µM): 112.597 | NET, Mean as % (Figure 8B) (human NET; 100µM): 113% | inhibition of NET function (in words) (human NET; HEK293 cells expressing human NET, 1 μM or 100 μM): neither 12a, 19b, 19d, nor the combined compound 12b inhibited | CC50 (in vitro; CC50): > 100 µM | CC50 (in vitro; CC50 BGM Average): > 100 µM | CC50 (in vitro; Exp 1 CC50 BGM): > 100 µM | CC50 (in vitro; Exp 2 CC50 BGM): > 100 µM | cross-resistance of 19d-resistant EV-D68 virus pools (in words) (EV-D68): cross-resistance | Figure 7 dose-response raw data, EV-D68 (triplicate values) (EV-D68; Concentration 0.001 µM): 11.1333 and 12.4782 and 12.9265 | Figure 7 dose-response raw data, EV-D68 (triplicate values) (EV-D68; Concentration 0.0137 µM): 9.388 and 8.898 and 11.4747 | Figure 7 dose-response raw data, EV-D68 (triplicate values) (EV-D68; Concentration 0.0412 µM): 11.1333 and 12.4782 and 12.9265 | Figure 7 dose-response raw data, EV-D68 (triplicate values) (EV-D68; Concentration 0.1235 µM): 10.386 and 11.4321 and 12.9265 | Figure 7 dose-response raw data, EV-D68 (triplicate values) (EV-D68; Concentration 0.3704 µM): 8.529 and 8.161 and 15.8928 | Figure 7 dose-response raw data, EV-D68 (triplicate values) (EV-D68; Concentration 1.1111 µM): 91.9917 and 94.6194 and 110.886 | Figure 7 dose-response raw data, EV-D68 (triplicate values) (EV-D68; Concentration 3.3333 µM): 101.502 and 102.252 and 110.761 | Figure 7 dose-response raw data, EV-D68 (triplicate values) (EV-D68; Concentration 10 µM): 100.876 and 104.38 and 113.014 | EC50 (EV-D68; EVD68, HeLa R19, […], read-out: EC50 Exp1): 3.04 µM | EC50 (EV-D68; EVD68, HeLa R19, read-out: EC50 Average): 1.25 µM | EC50 (EV-D68; EVD68, HeLa R19, read-out: EC50 EV-D68): 1.08 ± 0.2 µM | EC50 (EV-D68; EVD68, HeLa R19, read-out: EC50 EV-D68 strain 4310900947): 1.84 ± 0.4 µM | EC50 (EV-D68; EVD68, HeLa R19, read-out: EC50 EV-D68 strain 4310901348): 2.72 ± 0.96 µM | EC50 (EV-D68; EVD68, HeLa R19, read-out: EC50 EV-D68 strain 4310902042): 1.44 ± 0.23 µM | EC50 (EV-D68; EVD68, HeLa R19, read-out: EC50 EV-D68 strain 4310902284): 2.31 ± 0.82 µM | EC50 (EV-D68; EVD68, HeLa R19, read-out: EC50 EV-D68 strain 4311000742): 1.86 ± 0.16 µM | EC50 (EV-D68; EVD68, HeLa R19, read-out: EC50 EV-D68 strain Fermon): 1.23 ± 0.16 µM | EC50 (EV-D68; EVD68 / genotype 2c, HeLa R19, read-out: EC50 EV-D68 WT): 1.25 ± 0.09 µM | SERT, Mean (Figure 8B) (human SERT; 1µM): 99.47 | SERT, Mean as % (Figure 8B) (human SERT; 1µM): 99% | SERT, Mean (Figure 8B) (human SERT; 100µM): 114.09 | SERT, Mean as % (Figure 8B) (human SERT; 100µM): 114% | inhibition of SERT-mediated uptake (in words) (human SERT; HEK293 cells expressing human SERT, 1 and 100 μM): neither 12a, 19b, 19d, nor the combined compound 12b inhibited | virus titer, TCID50/ml (Figure 2A) (HRV-A2; compound concentration 3 µM): 354813 TCID50/ml | virus titer, TCID50/ml (Figure 2A) (HRV-A2; compound concentration 100 µM): 737.962 TCID50/ml and 467.735 TCID50/ml and 500 TCID50/ml | Figure 7 dose-response raw data, PV-1 (triplicate values) (PV-1; Concentration 0.0046 µM): 10.497 and 11.7005 and 9.1598 | Figure 7 dose-response raw data, PV-1 (triplicate values) (PV-1; Concentration 0.0137 µM): 10.497 and 11.7005 and 9.1598 | Figure 7 dose-response raw data, PV-1 (triplicate values) (PV-1; Concentration 0.0412 µM): 10.7644 and 8.357 and 9.1598 | Figure 7 dose-response raw data, PV-1 (triplicate values) (PV-1; Concentration 0.1235 µM): 13.4388 and 8.357 and 9.294 | Figure 7 dose-response raw data, PV-1 (triplicate values) (PV-1; Concentration 0.3704 µM): 10.497 and 11.7005 and 9.1598 | Figure 7 dose-response raw data, PV-1 (triplicate values) (PV-1; Concentration 1.1111 µM): 10.7644 and 8.357 and 9.1598 | Figure 7 dose-response raw data, PV-1 (triplicate values) (PV-1; Concentration 3.3333 µM): 13.4388 and 8.357 and 9.294 | Figure 7 dose-response raw data, PV-1 (triplicate values) (PV-1; Concentration 100 µM): 99.781 and 98.9928 and 101.358 | EC50 (PV-1; HeLa R19, read-out: EC50 Exp1): 3.89 µM | EC50 (PV-1; HeLa R19, read-out: EC50 Exp2): 3.53 µM | EC50 (PV-1; HeLa R19, read-out: EC50 PV-1): 3.71 ± 0.18 µM
